Series [1] relates to human hepatic cancer cells (HuH-7). In words: Anti-proliferative effect on human hepatic cancer cells, sulforhodamine B method. It is filed as cell-based. Particulars: 120 h, HuH-7 cells, cultured 5 days with compound. The source says:
(§1) Anti-proliferative effect of test compounds on human hepatic cancer cells (HuH-7), human lung cancer cells (EBC-1), human colorectal cancer cells (HCT116), human prostatic cancer cells (22Rv1), human pancreatic cancer cells (MIA PaCa-2), human stomach cancer cells (MKN45), human breast cancer cells (ZR-75-1) was checked by a sulforhodamine B method in accordance with Skehan P et al. (J. Natl. Cancer Inst. 1990 Jul. 4; 82(13): 1107-12). Explanation will be made taking HuH-7 cells as an example.
(§2) HuH-7 cells were seeded on DMEM medium (Dulbeco's modified Eagle Medium) containing 10% fetal bovine serum of a 96-well microplate and cultured at 37° C. for 24 hours in the presence of 5% carbon dioxide gas (CO2). Thereafter, a test compound was added to the wells and the cells were cultured for a further 5 days. […]
(§3) To each of the wells, a 1% aqueous acetic acid solution containing 0.4% sulforhodamine B was added and the wells were allowed to stand still at room temperature for 20 to 30 minutes. […] Subsequently, OD (optical density) was measured at a measurement wavelength of 492 nm and a reference wavelength of 690 nm to obtain the difference (A) in OD thus measured. Furthermore, the OD of a control well (containing no cells) was measured at a measurement wavelength of 492 nm and a reference wavelength of 690 nm to obtain the difference (B) in OD. […]

The test system of series [2] is human prostatic cancer cells (22Rv1). In words: Anti-proliferative effect on human prostatic cancer cells, sulforhodamine B method. It is filed as cell-based. The settings on record: 22Rv1 cells.
Text: as §1, §2, §3
A general note: Sulforhodamine B stains cellular protein and so reports cell mass.

Series [3] deals with human multiple myeloma cells (IM-9). In words: Anti-proliferative effect on human multiple myeloma cells, MTT assay. Particulars: IM-9 cells. The series is classed as cell-based. How it is done: [The source words this procedure for another cell line and reports this cell line under the same test.] (§4) Anti-proliferative effect of test compounds on human chronic myelogenous leukemia cells (KU812) was determined by an MTT assay in accordance with the method described in Singh A K et al. (Cancer Lett. 1996 Oct. 1; 107(1): 109-15). To describe more specifically, KU812 cells were seeded on RPMI 1640 medium containing 10% fetal bovine serum of a 96-well microplate, cultured at 37° C. for 24 hours in the presence of a 5% carbon dioxide gas (CO2). Thereafter, a test compound was added to the wells and the cells were cultured for a further 5 days. After the incubation, 10 μl of 5 mg/mL MTT ([…]) was added to the wells. After the cells were cultured for 4 hours, 100 μl of 0.01N HCl containing 10% SDS (sodium dodecyl sulfate) was added to the wells, which was further cultured overnight. Subsequently, OD was measured at a measurement wavelength of 570 nm and a reference wavelength of 690 nm to obtain the difference (A) in OD. Furthermore, OD of a control well (containing no cells) was measured at a measurement wavelength of 570 nm and a reference wavelength of 690 nm to obtain the difference (B) in OD. The difference (A−B) was regarded as the cell proliferation activity of each of the wells. […]
Background: Tetrazolium assays rely on reduction of a dye to a coloured formazan, in cell work by metabolically active cells.

Series [4] deals with human pancreatic cancer cells (MIA PaCa-2). In words: Anti-proliferative effect on human pancreatic cancer cells, sulforhodamine B method. The series is classed as cell-based. Particulars: MIA PaCa-2 cells.
Text: as §1, §2, §3

The test system of series [5] is human lung cancer cells (EBC-1). In words: Anti-proliferative effect on human lung cancer cells, sulforhodamine B method. It is filed as cell-based. Particulars: EBC-1 cells.
Text: as §1, §2, §3

The subject of series [6] is human breast cancer cells (ZR-75-1). In words: Anti-proliferative effect on human breast cancer cells, sulforhodamine B method. The series is classed as cell-based. The settings on record: ZR-75-1 cells.
Text: as §1, §2, §3

Series [7] deals with human stomach cancer cells (MKN45). In words: Anti-proliferative effect on human stomach cancer cells, sulforhodamine B method. The settings on record: MKN-45. The series is classed as cell-based.
Text: as §1, §2, §3

The test system of series [8] is human chronic myelogenous leukemia cells (KU812). In words: Anti-proliferative effect on human chronic myelogenous leukemia cells, MTT assay. It is filed as cell-based. The settings on record: 120 h, cultured 5 days with compound. How it is done:
as §4

The test system of series [9] is human acute myelogenous leukemia cells (KG-1). In words: Anti-proliferative effect on human acute myelogenous leukemia cells, MTT assay. The series is classed as cell-based. Particulars: KG-1 cells. How it is done:
[The source words this procedure for another cell line and reports this cell line under the same test.] as §4

In series [10] the test system is human colorectal cancer cells (HCT116). In words: Anti-proliferative effect on human colorectal cancer cells, sulforhodamine B method. The series is classed as cell-based. The settings on record: HCT-116.
Text: as §1, §2, §3

For series [11], the system named is human renal cancer cells (Caki-2). In words: Anti-proliferative effect on human renal cancer cells, sulforhodamine B method. It is filed as cell-based. The settings on record: Caki-2 cells.
The test system of series [12] is Human hepatic cancer cells HuH-7. In words: Anti-tumor effect on HuH-7 cells transplanted into SCID mice. It is filed as in vivo. Particulars: 100 mg/kg/day orally once a day for 9 days, HuH-7 tumor in SCID mice. How it is done:
Pharmacological Test 2 Anti-Cancer Effect […] on Hepatic Cancer Cells HuH-7
Human hepatic cancer cells HuH-7 were transplanted into SCID mice (a group of 6 female mice). Anti-tumor effect of test compounds according to the present invention was checked. To describe more specifically, the cancer cells were cultured in advance and a cell suspension solution containing the cancer cells in a concentration of 2.5×10^7 cells/mL was prepared. Then, 0.2 mL of the cell suspension solution was injected into the right axillary region of each of the mice to transplant the cancer cells. In this manner, cancer-bearing mice were prepared. […] Next day after completion of administration, the volume of a tumor was measured. The ratio in volume of a tumor at the time of grouping relative to that measured next day after completion of administration was calculated to obtain a relative tumor volume of each group. Then, the ratio (T/C %) in relative tumor volume of […] (administrated with a test compound) was calculated and used as an index of the effect. Relative tumor volume=tumor volume measured on the next day of completion of administration/tumor volume measured at the time of grouping (T/C %)=(an average value of relative tumor volume of test compound administration group)/(an average value of relative tumor volume of a control group)×100

Series [13] relates to human Burkitt's lymphoma cells (Daudi). In words: Cell proliferation suppression activity on human Burkitt's lymphoma cells, MTT assay. The series is classed as cell-based. Particulars: applied dose 10 nM. Here is the method: [The source words this procedure for another cell line and reports this cell line under the same test.] as §4
The test system of series [14] is human lymphoma cells (U937). In words: Cell proliferation suppression activity on human lymphoma cells, MTT assay. The series is classed as cell-based. Particulars: applied dose 10 nM. How it is done:
[The source words this procedure for another cell line and reports this cell line under the same test.] as §4

For orientation: IC50 means the point on the concentration scale where inhibition reaches its midpoint. Usually melting point stands for the temperature of the solid-liquid transition.

Take `O=C(Nc1ccc(Oc2ccc(CCC(=O)N3CCN(Cc4ccc5c(c4)OCO5)CC3)cc2)nc1)c1ccc(C(F)(F)F)cc1` [Example 1039, N-(6-{4-[3-(4-piperonylpiperazin-1-yl)-3-oxopropyl]phenoxy}pyridin-3-yl)-4-trifluoromethylbenzamide]: the IC50 in series [1] is less than 100 nM; in series [2], less than 100 nM; in series [3] it was less than 100 nM; in series [4], less than 100 nM; in series [5], less than 100 nM; in series [6], less than 1000 nM. The IC50 in [7], in series [8], in [9], in series [10] and in [11] was less than 100 nM throughout.
In the case of `Cc1cc(N(C)CC(=O)N2CCN(Cc3ccc4c(c3)OCO4)CC2)ccc1Oc1ccc(NC(=O)c2ccc(C(F)(F)F)cc2)cn1` [Example 1503, N-[6-(4-{[2-(4-piperonylpiperazin-1-yl)-2-oxoethyl]methylamino}-2-methylphenoxy)pyridin-3-yl]-4-trifluoromethylbenzamide], the 50% inhibitory concentration (IC50) in [1], in [2], in [3], in [4], in [5] and in series [6] was less than 100 nM each time. The IC50 in [7], in series [8], in series [9], in series [10] and in [11] was less than 100 nM each time. In series [12], the “T/C % (relative tumor volume, test group vs control group)” value is listed as less than 50%. Moreover, the “Daudi (T/C %) cell proliferation suppression activity” value in series [13] is listed as less than 70%. For the same compound, the “U937 (T/C %) cell proliferation suppression activity” value in series [14] is less than 70%.
In the case of `Cc1cc(N(C)CC(=O)N2CCN(Cc3ccc4c(c3)OCO4)CC2)ccc1Oc1ccc(NC(=O)c2ccc(-n3cccc3)cc2)cn1` [Example 2711, N-[6-(4-{[2-(4-piperonylpiperazin-1-yl)-2-oxoethyl]methylamino}-2-methylphenoxy)pyridin-3-yl]-4-pyrrole-1-ylbenzamide], the melting point lay within 163.1 to 166.5 °C.
`CCN(CC(=O)N1CCN(Cc2ccc3c(c2)OCO3)CC1)c1ccc(Oc2ccc(NS(=O)(=O)c3ccc(C(F)(F)F)cc3)cn2)c(F)c1` [Example 2712, N-[6-(4-{[2-(4-piperonylpiperazin-1-yl)-2-oxoethyl]ethylamino}-2-fluorophenoxy)pyridin-3-yl]-4-trifluoromethylbenzenesulfonamide] came in with a melting point of 177.8 to 180.1 °C.

Values taken from patent US8236826B2, “Diarylether derivatives as antitumor agents” (Otsuka Pharmaceutical Co., Ltd., priority 2005, dated 2012).
